Source: patent US20250230193A1, “CYCLIC COMPOUND HAVING SELECTIVE KRAS INHIBITORY EFFECT ON HRAS AND NRAS” (CHUGAI SEIYAKU KABUSHIKI KAISHA, priority 2022, published 2025)

Tests used:
[1] = biological target: GDP-bound HRAS wild-type protein (Homo sapiens, UniProt P01112); test: Binding to HRAS by surface plasmon resonance (SPR), Single Cycle Kinetics; conditions: SPR, GDP-bound HRAS wild-type vs GDP-bound KRAS wild-type
[2] = biological target: GDP-bound NRAS wild-type protein (Homo sapiens, UniProt P01111); test: Binding to NRAS by surface plasmon resonance (SPR), Single Cycle Kinetics; conditions: SPR, GDP-bound NRAS wild-type vs GDP-bound KRAS wild-type
Chain of GDP-bound NRAS wild-type protein (P01111 whole entry): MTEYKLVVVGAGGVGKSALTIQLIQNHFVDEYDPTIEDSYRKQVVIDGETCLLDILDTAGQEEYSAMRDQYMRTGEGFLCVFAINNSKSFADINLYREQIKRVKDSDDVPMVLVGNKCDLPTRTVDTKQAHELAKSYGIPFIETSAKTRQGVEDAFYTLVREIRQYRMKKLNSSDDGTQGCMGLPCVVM

Chain of GDP-bound HRAS wild-type protein (P01112 whole entry): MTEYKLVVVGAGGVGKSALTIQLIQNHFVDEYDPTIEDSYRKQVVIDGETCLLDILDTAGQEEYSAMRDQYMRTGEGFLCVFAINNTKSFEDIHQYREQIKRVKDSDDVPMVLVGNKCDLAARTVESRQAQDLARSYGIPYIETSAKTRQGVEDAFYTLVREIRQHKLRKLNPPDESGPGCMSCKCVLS

Row | SMILES | HRAS/KRAS (ratio of KD value with respect to HRAS to KD value with respect to KRAS) [1] | NRAS/KRAS (ratio of KD value with respect to NRAS to KD value with respect to KRAS) [2]
1 | CCC[C@H]1C(=O)N[C@@H](C2CCCC2)C(=O)N(C)CC(=O)N(C)[C@H]2C/C=C\CCN(C2=O)[C@@H](Cc2ccc(C)cc2)C(=O)N(C)CC(=O)N[C@@H](CCc2ccc(C(F)(F)F)c(Cl)c2)C(=O)N2C[C@H](OCC)C[C@H]2C(=O)NC2(CC(C)(C)C2)C(=O)N(C)[C@@H](CC(C)(C)C)C(=O)N(C)[C@H](C(=O)N(C)C)CC(=O)N1C [PP2196] | B (a compound having 3 or more and less than 10 is denoted as B) | A (a compound having 10 or more and less than 20 is denoted as A)
2 | CCO[C@@H]1C[C@H]2C(=O)NC3(CCCC3)C(=O)N(C)[C@@H](C3CCCC3)C(=O)N(C)[C@H](C(=O)N(C)C)CC(=O)N(C)[C@@H](CC(C)C)C(=O)N[C@@H]([C@@H](C)CC)C(=O)N(C)CC(=O)N(C)[C@H]3C/C=C\CCN(C3=O)[C@@H](Cc3ccc(C)cc3)C(=O)N(C)CC(=O)N[C@@H](CCc3ccc(C(F)(F)F)c(OC)c3)C(=O)N2C1 [PP2197] | B (a compound having 3 or more and less than 10 is denoted as B) | A (a compound having 10 or more and less than 20 is denoted as A)
3 | CCC[C@H]1C(=O)N[C@@H](C2CCCC2)C(=O)N(C)CC(=O)N(C)[C@H]2C/C=C\CCN(C2=O)[C@@H](Cc2ccc(C)cc2)C(=O)N(C)CC(=O)N[C@@H](CCc2ccc(C(F)(F)F)c(Cl)c2)C(=O)N2C[C@H](OCC)C[C@H]2C(=O)NC2(CC(C)(C)C2)C(=O)N(C)[C@@H](C2CCCC2)C(=O)N(C)[C@H](C(=O)N(C)C)CC(=O)N1C [PP2198] | A (a compound having 10 or more and less than 20 is denoted as A) | A (a compound having 10 or more and less than 20 is denoted as A)
4 | CCC[C@H]1C(=O)N[C@@H](C(CC)CC)C(=O)N(C)CC(=O)N(C)[C@H]2C/C=C\CCN(C2=O)[C@@H](Cc2ccc(C)cc2)C(=O)N(C)CC(=O)N[C@@H](CCc2ccc(C(F)(F)F)c(Cl)c2)C(=O)N2C[C@H](OCC)C[C@H]2C(=O)NC2(CC(C)(C)C2)C(=O)N(C)[C@@H](CC(C)C)C(=O)N(C)[C@H](C(=O)N(C)C)CC(=O)N1C [PP2202] | A (a compound having 10 or more and less than 20 is denoted as A) | A (a compound having 10 or more and less than 20 is denoted as A)
5 | CCCOC[C@H]1C(=O)N[C@@H]([C@@H](C)CC)C(=O)N(C)CC(=O)N(C)[C@H]2C/C=C\CCN(C2=O)[C@@H](Cc2ccc(C)cc2)C(=O)N(C)CC(=O)N[C@@H](CCc2cc(F)c(C(F)(F)F)c(F)c2)C(=O)N2C[C@H](CCC)C[C@H]2C(=O)NC2(CC(C)(C)C2)C(=O)N(C)[C@@H](C2CCCC2)C(=O)N(C)[C@H](C(=O)N(C)C)CC(=O)N1C [PP2203] | A (a compound having 10 or more and less than 20 is denoted as A) | A (a compound having 10 or more and less than 20 is denoted as A)
6 | CCC[C@H]1C(=O)N[C@@H](C(CC)CC)C(=O)N(C)CC(=O)N(C)[C@H]2C/C=C\CCN(C2=O)[C@@H](Cc2ccc(C)cc2)C(=O)N(C)CC(=O)N[C@@H](CCc2ccc(C(F)(F)F)c(Cl)c2)C(=O)N2C[C@H](OCC)C[C@H]2C(=O)NC2(CC(C)(C)C2)C(=O)N(C)[C@@H](CC(C)(C)C)C(=O)N(C)[C@H](C(=O)N(C)C)CC(=O)N1C [PP2207] | A (a compound having 10 or more and less than 20 is denoted as A) | A (a compound having 10 or more and less than 20 is denoted as A)
7 | CCC[C@@H]1C[C@H]2C(=O)NC3(CC(C)(C)C3)C(=O)N(C)[C@@H](C3CCCC3)C(=O)N(C)[C@H](C(=O)N(C)C)CC(=O)N(C)[C@@H](CC)C(=O)N[C@@H]([C@@H](C)CC)C(=O)N(C)CC(=O)N(C)[C@H]3C/C=C\CCN(C3=O)[C@@H](Cc3ccc(C)cc3)C(=O)N(C)CC(=O)N[C@@H](CCc3cc(F)c(C(F)(F)F)c(F)c3)C(=O)N2C1 [PP2208] | A (a compound having 10 or more and less than 20 is denoted as A) | A (a compound having 10 or more and less than 20 is denoted as A)
8 | CCC[C@H]1C(=O)N[C@@H](C(CC)CC)C(=O)N(C)CC(=O)N(C)[C@H]2C/C=C\CCN(C2=O)[C@@H](Cc2ccc(C)cc2)C(=O)N(C)CC(=O)N[C@@H](CCc2ccc(C(F)(F)F)c(Cl)c2)C(=O)N2C[C@H](OCC)C[C@H]2C(=O)NC2(CC(C)(C)C2)C(=O)N(C)[C@@H](C2CCCC2)C(=O)N(C)[C@H](C(=O)N(C)C)CC(=O)N1C [PP2209] | A (a compound having 10 or more and less than 20 is denoted as A) | A (a compound having 10 or more and less than 20 is denoted as A)
9 | CCC[C@H]1C(=O)N[C@@H]([C@@H](C)CC)C(=O)N(C)CC(=O)N(C)[C@H]2C/C=C\CCN(C2=O)[C@@H](Cc2ccc(C)cc2)C(=O)N(C)CC(=O)N[C@@H](CCc2ccc(C(F)(F)F)c(Cl)c2)C(=O)N2C[C@H](C)C[C@H]2C(=O)NC2(CC(C)(C)C2)C(=O)N(C)[C@@H](C2CCCC2)C(=O)N(C)[C@H](C(=O)N(C)C)CC(=O)N1C [PP2210] | B (a compound having 3 or more and less than 10 is denoted as B) | A (a compound having 10 or more and less than 20 is denoted as A)
10 | CCC[C@H]1C(=O)N[C@@H]([C@@H](C)CC)C(=O)N(C)CC(=O)N(C)[C@H]2C/C=C\CCN(C2=O)[C@@H](Cc2ccc(C)cc2)C(=O)N(C)CC(=O)N[C@@H](CCc2ccc(C(F)(F)F)c(Cl)c2)C(=O)N2C[C@H](CC)C[C@H]2C(=O)NC2(CC(C)(C)C2)C(=O)N(C)[C@@H](C2CCCC2)C(=O)N(C)[C@H](C(=O)N(C)C)CC(=O)N1C [PP2212] | B (a compound having 3 or more and less than 10 is denoted as B) | A (a compound having 10 or more and less than 20 is denoted as A)
11 | CCC[C@@H]1C[C@H]2C(=O)NC3(CC(C)(C)C3)C(=O)N(C)[C@@H](C3CCCC3)C(=O)N(C)[C@H](C(=O)N(C)C)CC(=O)N(C)[C@@H](CCC)C(=O)N[C@@H]([C@@H](C)CC)C(=O)N(C)CC(=O)N(C)[C@H]3C/C=C\CCN(C3=O)[C@@H](Cc3ccc(C)cc3)C(=O)N(C)CC(=O)N[C@@H](CCc3ccc(C(F)(F)F)c(Cl)c3)C(=O)N2C1 [PP2214] | A (a compound having 10 or more and less than 20 is denoted as A) | A (a compound having 10 or more and less than 20 is denoted as A)
12 | CCC[C@H]1C(=O)N[C@@H]([C@@H](C)CC)C(=O)N(C)CC(=O)N(C)[C@H]2C/C=C\CCN(C2=O)[C@@H](Cc2ccc(C)cc2)C(=O)N(C)CC(=O)N[C@@H](CCc2cc(F)c(C(F)(F)F)c(F)c2)C(=O)N2C[C@H](CC)C[C@H]2C(=O)NC2(CCCC2)C(=O)N(C)[C@@H](C2CCCC2)C(=O)N(C)[C@H](C(=O)N(C)C)CC(=O)N1C [PP2216] | A (a compound having 10 or more and less than 20 is denoted as A) | A (a compound having 10 or more and less than 20 is denoted as A)
13 | CCCOC[C@H]1C(=O)N[C@@H]([C@@H](C)CC)C(=O)N(C)CC(=O)N(C)[C@H]2C/C=C\CCN(C2=O)[C@@H](Cc2ccc(C)cc2)C(=O)N(C)CC(=O)N[C@@H](CCc2cc(F)c(C(F)(F)F)c(F)c2)C(=O)N2C[C@H](CC)C[C@H]2C(=O)NC2(CCCC2)C(=O)N(C)[C@@H](C2CCCC2)C(=O)N(C)[C@H](C(=O)N(C)C)CC(=O)N1C [PP2218] | A (a compound having 10 or more and less than 20 is denoted as A) | A (a compound having 10 or more and less than 20 is denoted as A)
14 | CCC[C@H]1C(=O)N[C@@H]([C@H](C)CC)C(=O)N(C)CC(=O)N(C)[C@H]2C/C=C\CCN(C2=O)[C@@H](Cc2ccc(C)cc2)C(=O)N(C)CC(=O)N[C@@H](CCc2ccc(C(F)(F)F)c(Cl)c2)C(=O)N2C[C@H](OCC)C[C@H]2C(=O)NC2(CC(C)(C)C2)C(=O)N(C)[C@@H](CC(C)(C)C)C(=O)N(C)[C@H](C(=O)N(C)C)CC(=O)N1C [PP2219] | A (a compound having 10 or more and less than 20 is denoted as A) | A (a compound having 10 or more and less than 20 is denoted as A)
15 | CC[C@@H]1C[C@H]2C(=O)NC3(CCC3)C(=O)N(C)[C@@H](C3CCCC3)C(=O)N(C)[C@H](C(=O)N(C)C)CC(=O)N(C)[C@@H](CC(C)C)C(=O)N[C@@H]([C@@H](C)CC)C(=O)N(C)CC(=O)N(C)[C@H]3C/C=C\CCN(C3=O)[C@@H](Cc3ccc(C)cc3)C(=O)N(C)CC(=O)N[C@@H](CCc3cc(F)c(C(F)(F)F)c(F)c3)C(=O)N2C1 [PP2220] | A (a compound having 10 or more and less than 20 is denoted as A) | A (a compound having 10 or more and less than 20 is denoted as A)
16 | CCC[C@H]1C(=O)N[C@@H]([C@H](C)CC)C(=O)N(C)CC(=O)N(C)[C@H]2C/C=C\CCN(C2=O)[C@@H](Cc2ccc(C)cc2)C(=O)N(C)CC(=O)N[C@@H](CCc2ccc(C(F)(F)F)c(Cl)c2)C(=O)N2C[C@H](OCC)C[C@H]2C(=O)NC2(CC(C)(C)C2)C(=O)N(C)[C@@H](C2CCCC2)C(=O)N(C)[C@H](C(=O)N(C)C)CC(=O)N1C [PP2221] | A (a compound having 10 or more and less than 20 is denoted as A) | A (a compound having 10 or more and less than 20 is denoted as A)
